Several values for one entry are separate records, joined by “and”; a condition that tells them apart may be missing. Identical values can stand only once. Entries after “also recorded” stand apart in the source; their conditions may differ.
How the values were obtained:
[1] = Stability of [^18F]FCA in its PBS formulation; type: physicochemical; conditions: PBS pH 7.4 formulation; room temperature
[2] = Dynamic PET of [^18F]FCA in wild-type FVB mice; type: in vivo
Description: Food and water was provided ad libitum. Animals were fasted overnight before the PET-scan.
A CT-scan was acquired for anatomical correlation.
In vivo characteristics of [^18F]FCA were investigated by a two hour dynamic PET scan with 30 MBq [^18F]FCA, injected intravenously (n = 3). Four and six hours post-injection, a 30 minute static scan was performed.
P-values ≤ 0.05 were considered significant.

[3] = Stability of [^18F]FCA in mouse serum
[4] = test system: primary mouse hepatocytes; assay: Stability/metabolization of [^18F]FCA with primary mouse hepatocytes; conditions: 37°C
[5] = as above; conditions: mouse
[6] = test system: hepatobiliary transport of [^18F]FCA; assay: Dynamic PET of [^18F]FCA in control, rifampicin and bosentan treated FVB-mice; conditions: female, FVB, mouse, in vivo
Description: Hepatobiliary transport of the tracer was evaluated in female wild-type FVB mice (5 weeks old, Charles River). The animals were housed in accordance with European Ethics Committee guidelines. The animal studies were approved by the Animal Experimental Ethical Committee of Ghent University (ECD 15/69). Food and water was provided ad libitum. Animals were fasted overnight before the PET-scan.
Mice were anesthetized with 1.5 v:v % isoflurane in 100% O2 for the duration of the experiment. An intravenous polyethylene line was placed in the lateral tail vein. The animals were placed in the small animal PET/CT-scanner (FLEX Triumph II small animal PET/CT-scanner; PET field of view: 7.5 cm axial; 1.3 mm spatial resolution; TriFoil Imaging) on a heated bed. A CT-scan was acquired for anatomical correlation.
The interaction of rifampicin (Sigma Aldrich) and bosentan (Activate Scientific) on in vivo [^18F]FCA transport was examined. FVB-mice were divided into 3 different groups (n = 3 per group): rifampicin, bosentan, and a control DMSO vehicle treated group). Both drugs were administered in doses of 100 mg/kg, intra-peritoneal in DMSO:PBS 70:30 v:v (rifampicin) or DMSO (bosentan) 1 hour before the start of the PET-scan. An additional dose (25 mg/kg for rifampicin in DMSO:PBS 40:60 v:v, 50 mg/kg for bosentan in DMSO) was co-injected intravenously with the tracer.
For each scan, 10 MBq of [^18F]FCA was administered intravenously and a 1 hour dynamic scan was started. Immediately after the dynamic scan, 18 MBq [^18F]FDG was injected intravenously. After 20 minutes, a 20 minutes static scan was taken.
PET-data were obtained in list-mode and were iteratively reconstructed (50 iterations) in frames of 15 seconds for the first 10 minutes, followed by 50 frames of 1 minute. ROI’s were drawn manually over liver, gallbladder and intestines using PMod software. A ROI was drawn in the left ventricle on the static [^18F]FDG scan to obtain an image-derived arterial blood input curve. The uptake of [^18F]FCA in arterial blood, liver, gallbladder and intestines was expressed as a % injected dose (% ID) and normalized for the weight of a 20 gram mouse. Time-activity curves (TAC’s) were generated using these values.
AUC, maximum % ID, and time to peak values were determined for the TAC’s with Graphpad Prism v3.00. Differences between 2 groups were determined with the non-parametric Mann-Whitney U test. P-values ≤ 0.05 were considered significant.

[7] = LogD of [^18F]FCA in octanol/PBS pH 7.4; type: physicochemical; conditions: octanol/PBS 50:50 v:v, n = 3
Description: 1 MBq of [^18F]FCA was used to spike an octanol/PBS 50:50 v:v pH 7.4 mixture in a test tube. After mixing and centrifugation (5 min; 1100 g), aliquots were taken from each layer and radioactivity was measured in a NaI (Tl) scintillation counter (Capintec; Ramsey, NJ, USA). The LogD value of [^18F]FCA was calculated as the logarithm of the ratio of counts in octanol and PBS.

Question: What does the source list for `C[C@H](CCC(=O)O)[C@H]1CC[C@H]2[C@@H]3[C@H](O)C[C@@H]4C[C@@H]([18F])CC[C@]4(C)[C@H]3C[C@H](O)[C@]12C` [[^18F]FCA, 3β-[^18F]Fluorocholic Acid]?
Answer: time stable in PBS formulation [1]: at least 6 hours; AUC gallbladder & intestines % injected dose ([2]; IV, n = 3): 4105 ± 36 % ID.min; Time to peak liver ([2]; IV, n = 3): 4.5 min and 4.5 ± 0.5 min; Max % injected dose liver ([2]; IV, n = 3, normalized for a 20 g mouse): 71.8 % ID and 71.8 ± 1.2 % ID; uptake in urinary bladder or other organs ([2]; PET/CT images up to 6 hours post-injection): no uptake in other organs than liver, gallbladder and intestines; radioactivity in gallbladder and intestines ([2]; after 1 hour): 93.3 ± 6.0 % ID and 93.3 % ID; time stable in presence of mouse serum ([3]; 37°C): at least 1 hour; degradation or metabolization products in mouse serum ([3]; 37°C, 5, 10, 30 and 60 minutes): No degradation or metabolization products; recovery at 5 min, 37 MBq/mL ([3]; mouse): 100%; recovery at 10 min, 37 MBq/mL ([3]; mouse): 100%; recovery at 30 min, 37 MBq/mL ([3]; mouse): 100%; recovery at 60 min, 37 MBq/mL ([3]; mouse): 100%; time stable in presence of primary mouse hepatocytes [4]: at least 1 hour; degradation or metabolization products with primary mouse hepatocytes ([4]; 5, 10, 30 and 60 minutes): metabolically stable; also recorded: No degradation or metabolization products; recovery at 5 min, 37 MBq/mL [5]: 100%; recovery at 10 min, 37 MBq/mL [5]: 100%; recovery at 30 min, 37 MBq/mL [5]: 100%; recovery at 60 min, 37 MBq/mL [5]: 100%; AUC arterial blood % injected dose [6]: 1.909 ± 0.572 % ID.min; AUC gallbladder & intestines % injected dose [6]: 3718 ± 182 % ID.min; Time to peak liver [6]: 5.5 ± 1.1 min; Max % injected dose liver ([6]; iv): 71.2 ± 3.5 % ID; logD [7]: 1.19 ± 0.1

— article PMC5342262, “Synthesis, in vitro and in vivo evaluation of 3β-[^18F]fluorocholic acid for the detection of drug-induced cholestasis in mice” (PLoS ONE, 2017)
